Consider 3 molecules from article PMC3465710 (Biochemistry, 2011).

For assay [1], the system named is [3H]-CB binding to red cell membranes. Particulars: cited from earlier work.
For assay [2], the target named is T1, GLUT1 (Homo sapiens, UniProt P11166).
T1 sequence (P11166 1-492): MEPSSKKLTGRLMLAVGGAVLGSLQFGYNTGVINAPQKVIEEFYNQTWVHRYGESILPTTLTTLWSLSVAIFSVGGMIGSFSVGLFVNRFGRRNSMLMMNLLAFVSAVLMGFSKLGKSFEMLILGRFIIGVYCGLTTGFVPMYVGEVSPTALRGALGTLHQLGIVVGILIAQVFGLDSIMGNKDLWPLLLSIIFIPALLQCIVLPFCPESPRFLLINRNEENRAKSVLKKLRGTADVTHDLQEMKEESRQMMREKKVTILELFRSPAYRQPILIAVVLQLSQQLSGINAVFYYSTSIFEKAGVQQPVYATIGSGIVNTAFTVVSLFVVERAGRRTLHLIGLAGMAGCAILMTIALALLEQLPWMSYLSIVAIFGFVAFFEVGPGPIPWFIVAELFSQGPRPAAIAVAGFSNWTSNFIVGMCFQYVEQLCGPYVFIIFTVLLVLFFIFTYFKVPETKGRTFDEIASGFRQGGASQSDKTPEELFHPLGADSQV
To be noted: 4°C; cited from earlier work.

Assay [3] has as its target T1, GLUT1. It is filed as binding. Particulars: for β (cooperativity parameter, second inhibitor molecule) / γ (hetero-cooperativity parameter) / Inhibition (type of modulation of CB binding) / Ki: 50 nM [3H]-CB; for β (cooperativity parameter, second inhibitor molecule) / γ (hetero-cooperativity parameter): eqn 6; for Inhibition (type of modulation of CB binding): competing ligand 0 to 100 μM; for α (homo-cooperativity factor): CB inhibition of [3H]-CB binding; for ΔG°: calculated as RT ln(1/KI); for β*γ: product.

For assay [4], the target named is T1, GLUT1.
The target of assay [5] is T2, GLUT1-mediated sugar transport in red cells (Homo sapiens, UniProt P11166).
T2 sequence (P11166 1-492): T1 sequence (P11166 1-492)
Kind of assay: Equilibrium exchange 3-O-methylglucose uptake in red cells. It is filed as cell-based.

Assay [6] concerns the target T2, GLUT1-mediated sugar transport in red cells. The experiment in a line: Zero-trans 3-O-methylglucose uptake in red cells. The assay is classed as cell-based.
In assay [7] the target is T1, GLUT1. Kind of assay: biochemical.
[8] abbreviates: Ki (affinity of unoccupied GLUT1 for ligand), 4°C, eqn 6, iterative free [I].
Where [9] appears, read: Ki, eqn 6, values in text or legends.

Values joined by “and” are separate entries in the source; they are usually repeats but may differ in a detail not shown here. Equal entries are not always repeated. Where two headings read alike, the source gives them in different places.

Usually Kd stands for the concentration at which binding is half-saturated.

For `C=C1[C@@H](C)[C@H]2[C@H](Cc3ccccc3)NC(=O)[C@]23OC(=O)/C=C/[C@H](O)CCC[C@@H](C)C/C=C/[C@H]3[C@@H]1O` [CCB, Cytochalasin B], the “inhibition of CB binding” value in assay [1] is “high affinity”. Further, the “time constant of binding to GLUT1” value on GLUT1 [2] is 1 s. Besides, at GLUT1 [3] (4°C), the “β (cooperativity parameter, second inhibitor molecule)” value is on record as 6.284 ± 3.849; the “γ (hetero-cooperativity parameter)” value came to 6.284 ± 3.849; the “α (homo-cooperativity factor)” value is 6.284 ±3.849. Further, at GLUT1 [3] (4°C, listed as CB), the “β (cooperativity parameter, second inhibitor molecule)” value was 6.3; the “γ (hetero-cooperativity parameter)” value is on record as 6.3; the “α (homo-cooperativity factor)” value stood at 6.284 ± 0.558. Besides, at GLUT1 [3], the “Inhibition (type of modulation of CB binding)” value is given as 1, the “ΔG°” value was -8.88 kcal/mol and the “β*γ” value amounted to 39. For the same molecule, at GLUT1 [3] (fit versus measured free CB), the α came to 5.441 ± 0.558. Further, on GLUT1 [3] (fit versus simulated free CB), the α was 7.01 ± 0.53. Also, the α at GLUT1 [3] (fit versus total CB) is on record as 10.0 ± 1.0.
Take `C[C@H]1C/C=C/[C@H]2[C@@H]3O[C@]3(C)[C@@H](C)[C@H]3[C@H](Cc4ccccc4)NC(=O)[C@]32OC(=O)O/C=C/[C@@](C)(O)C1=O` [CCE, Cytochalasin E]: the Ki in assay [1] (read-out: Ki(app) for inhibition of [3H]-CB binding, red cell membranes) was ≥ 100 µM. Further, on GLUT1 [3] (4°C), the “β (cooperativity parameter, second inhibitor molecule)” value was found to be 7917 ± 2935 and the “γ (hetero-cooperativity parameter)” value was 0.555 ± 0.016. Further, at GLUT1 [3], the “Inhibition (type of modulation of CB binding)” value worked out at 3, the “ΔG°” value is -8.88 kcal/mol and the “β*γ” value is 4394. At GLUT1 [3] (KL (Table 2, taken from Table 1), cytochalasins, rounded values), this molecule came in with a Kd of 0.1 µM. Further, the Ki at GLUT1 [3] (setting [8]) turned out to be 0.099 ± 0.008 µM. This molecule yielded a Ki at GLUT1 [3] (setting [9]) of 0.1 µM. Further, the “ΔΔG°” value on GLUT1 [3] (change in ΔG° relative to baseline cytochalasin or forskolin) is given as 0.01 kcal/mol.
As to `C=C[C@@]1(C)CC(=O)[C@]2(O)[C@@]3(C)[C@@H](O)CCC(C)(C)[C@@H]3[C@H](O)[C@H](OC(C)=O)[C@@]2(C)O1` [FSK, forskolin], on GLUT1 [4], the “Kd for forskolin binding relative to Kd for CB binding” value is on record as “at least 20 fold”. Also, the “α (homo-cooperativity factor)” value at GLUT1 [4] (FSK inhibition of [3H]-FSK binding, 4°C) is on record as 2.43 ± 0.23. The α on GLUT1 [4] (fit versus measured free FSK) was 2.400 ± 0.212; on GLUT1 [4] (fit versus simulated free FSK), 2.434 ± 0.235; at GLUT1 [4] (fit versus total FSK) it was 2.383 ± 2.116. Moreover, the Ki in assay [5] was 1.2 ± 0.6 µM; at GLUT1 [3] (setting [8]), 3.28 ± 0.96 µM; at GLUT1 [3] (setting [9]) it was 3.28 ± 0.98 µM; in assay [6], 1.9 ± 0.4 µM. Moreover, the “Kmapp for 3MG uptake in presence of inhibitor” value is recorded as 48.5 ± 7.3 mM in assay [5] (equilibrium exchange, 2 μM FSK) and 1.09 ± 0.15 mM in assay [6] (zero-trans, 2 μM FSK). Besides, the “Vmax for 3MG uptake in presence of inhibitor” value worked out at 8.3 ± 0.7 mM/L/min in assay [5] (equilibrium exchange, 2 μM FSK) and 0.055 ± 0.004 mM/L/min in assay [6] (zero-trans, 2 μM FSK). For the same molecule, the “mode of inhibition of exchange sugar uptake” value in assay [5] (human erythrocytes) is “competitive inhibitor”. In addition, at GLUT1 [3] (4°C), the “β (cooperativity parameter, second inhibitor molecule)” value is recorded as 1.54 ± 0.73. Moreover, the “γ (hetero-cooperativity parameter)” value on GLUT1 [3] (4°C) is 0.93 ± 0.10 and 0.930 ± 0.103 and 0.9; on GLUT1 [3] (4°C, listed as forskolin), 0.93. Further, on GLUT1 [3], the “Inhibition (type of modulation of CB binding)” value was 1. Besides, the “ΔG°” value at GLUT1 [3] is -6.95 kcal/mol. Moreover, the “β*γ” value on GLUT1 [3] was found to be 1. Besides, the “mode of inhibition of net sugar uptake” value in assay [6] (human erythrocytes) is “noncompetitive inhibitor”. In addition, the Kd at GLUT1 [7] (KL, FSK inhibition of [3H]-FSK binding (50 nM), 4°C, eqn 7, assumes α = β = γ) stood at 2.75 ± 0.787 µM; at GLUT1 [7] (Kl, fit versus measured free FSK) it was 2.83 ± 0.754 µM; on GLUT1 [7] (Kl, fit versus total FSK), 3.33 ± 0.893 µM.
